Assay results taken from patent US12508239B2, “Alcohol derivatives as Kv7 potassium channel openers for use in epilepsy or seizures” (H. Lundbeck A/S, priority 2019, dated 2025).

Tests used:
hKv7.2/hKv7.3 [1] = biological target: T1, hKv7.2/hKv7.3 (Homo sapiens, UniProt O43525+O43526); test: Thallium influx assay for potassium channel activation; assay type: cell-based; details: HEK-hKv7.2/hKv7.3 cells; AUC readout normalized to a reference compound
T1 construct: P2A self-cleaving linker (remnant after ribosomal skipping); expressed in transfected cells; vector pcDNA5/FRT/TO
Experimental: (§1) A synthesized cDNA fragment encoding human Kv7.3 and human Kv7.2 separated by a P2A sequence was inserted into the pcDNA5/FRT/TO vector using the BamHI and XhoI restriction sites. The construct was then transfected into HEK Flp-In 293 cells using Lipofectamine2000. The transfected cells were grown for 48 hours in DMEM containing 10% (v/v) FBS and 1% PenStrep and subsequently maintained under selection in DMEM containing 10% (v/v) FBS, 1% PenStrep and 200 ug/mL Hygromycin B at 37° C. in a humidified atmosphere of 5% CO2.
The thallium influx assay for potassium channel activation was performed analogously to a published procedure (C. D. Weaver, et al., J Biomol Screen 2004, 9, 671-677) using the FLIPR Potassium Assay kit (Molecular Devices). HEK-hKv7.2/hKv7.3 cells were plated onto 96-well, black-walled, clear-bottomed culture plates (Corning, Acton, MA, USA) at a density of 80,000 cells/well (100 μl/well) if the cells were assayed the following day, or 40,000 cells/well (100 μl/well) if the cells were assayed two days after seeding.
On the assay day, the medium was removed after which 50 uL/well of test compound diluted to 2× final concentration in HBSS containing 20 mM HEPES, and 50 uL/well of 2× dye load buffer were added. The cells were then incubated for 60 min at room temperature in the dark. Chloride-free stimulation buffer containing Tl^+ and K^+ at 5× final concentration (5× concentration: 5 mM in both cases) and test compound at 1× final concentration, were prepared during the incubation. The cells were then assayed in a FDSS7000EX Functional Drug Screening System (Hamamatsu). Following 60 sec of baseline fluorescence signal reading at 0.1 Hz, and 10 sec at 1 Hz, 25 uL/well of stimulation buffer were added and the fluorescence continuously measured for 50 sec at 1 Hz followed, by 4 min at 0.1 Hz. Compound effect was quantified using AUC as readout and normalized to a reference compound, which was included on each plate.

mice = test: Maximal electroshock seizure threshold test (MEST) in mice; assay type: in vivo, mouse; details: corneal electrodes
Experimental: (§2) Significant differences between drug-treated animals and controls were assessed according to Litchfield and Wilcoxon, Pharmacol Exp Ther. 1949; 96(1):99-113

rats = test: Maximal electroshock seizure threshold test (MEST) in rats; assay type: in vivo, rat; details: for seizure threshold: rats
Experimental: as §2

hKv7.2/hKv7.3 [2] = biological target: T1, hKv7.2/hKv7.3; test: Automated whole cell patch-clamp of stable HEK-hKv7.2/hKv7.3 cell line; assay type: cell-based; details: functional test of the cell line
Experimental: as §1

| SMILES | EC50 (hKv7.2/hKv7.3 [1]) | effect on Kv7-current (hKv7.2/hKv7.3 [2]) | other results |
| --- | --- | --- | --- |
| C[C@H](NC(=O)CC(C)(O)C(F)(F)C(F)F)c1cccc(OC(F)(F)F)c1 (single isomer, unassigned) [Example 10a] | 650 nM | – | – |
| C[C@H](NC(=O)C[C@@](C)(O)CC(F)(F)F)c1cccc(OC(F)(F)F)c1 (single isomer, unassigned) [Example 13a] | 1900 nM | – | – |
| C[C@H](NC(=O)CC1(O)CC(F)(F)C1)c1cccc(OC(F)(F)F)c1 [Example 5, (S)-2-(3,3-difluoro-1-hydroxycyclobutyl)-N-(1-(3-(trifluoromethoxy)phenyl)ethyl) acetamide] | – | – | current required to induce an electroconvulsion, i.e. seizure threshold (mice): dose-dependent significant increase; seizure threshold CC50 (current producing tonic hind limb extensor seizures in 50% of animals) (rats; rat, acute peroral administration 30 min prior to test, all doses tested 0.03-1 mg/kg, relative to vehicle): significantly increased; seizure threshold (rats; pretreatment with a single acute administration): significant increase; seizure threshold (rats; repeated administration (once daily, 15 days)): significant increase |
| C[C@H](NC(=O)C[C@H](O)C1CC(F)(F)C1)c1cccc(OC(F)(F)F)c1 [Example 11a, 3-(3,3-Difluorocyclobutyl)-3-hydroxy-N—((S)-1-(3-(trifluoromethoxy)phenyl)ethyl) propanamide] | 1500 nM | – | – |
| CCOC(=O)Nc1ccc(NCc2ccc(F)cc2)cc1N [Retigabine, N-(2-amino-4-(4-fluorobenzylamino)-phenyl) carbamic acid ethyl ester] | – | potentiated | – |
| O=C1c2ccccc2C(Cc2ccncc2)(Cc2ccncc2)c2ccccc21 [XE991] | – | sensitive | – |
